Patent US8115031B2, “Anti-inflammatory quinic acid derivatives for oral administration” (priority 2007, dated 2012)
Where two headings read alike, the source gives them in different places. One block for each molecule: values may come before it.

Experiments:
[1] = levels of compound after oral (PO) or intravenous (IV) administration; format: in vivo; settings: PO vs IV, FIG. 12
Text: FIG. 12 is a graph illustrating the levels of analog KZ-41 when provided orally (PO) or by intravenous administration (IV).
Quinic acids are, however, catabolized by enzymes produced by gut bacteria. In rats, less than 10% of an orally-administered dose of quinic acid is recovered. The inventors therefore set out to produce quinic acid derivatives that retain or improve the beneficial effects of quinic acid, while being effective for oral administration. […] The compounds they have synthesized are not catabolized by bacterial enzymes, but are water-soluble, stable at room temperature, and effective for producing anti-inflammatory effects. […] These properties make the compounds attractive options for therapeutic use as anti-inflammatory agents.

[2] = system: Gluconobacter oxydans membrane fraction (quinate dehydrogenase); assay: degradation by bacterial enzymes (Gluconobacter oxydans membrane fraction); format: in vitro ADME
Method: FIG. 11 is a graph illustrating the results of an assay to compare stability of analog KZ-41 with that of quinic acid (QA) to degradation by bacterial enzymes. Percentage of drug remaining is shown on the Y-axis and the time exposed to the enzymes is shown on the X-axis. Results for quinic acid are indicated by the diamonds (♦) and results for KZ-41 are indicated by the squares (▪).
Experiments involving Gluconobacter oxydans were performed as described by Adachi et al. (Adachi, O., et al., (2003) Biosci. Biotechnol. Biochem. 67: 2124-2131). […]
Samples were evaporated to dryness at 30° C. and reconstituted with […] of 1:1 (v/v) mixture of 0.5% ammonia in water and acetonitrile. […] The spray needle voltage was set at 5,000 V, with the turbo gas temperature set at 400° C., and the declustering potential set at 60 V. For this study, samples were analyzed using a Q1 scan for product ion identification, a product ion scan for characterization of metabolites or enzymatic products and by using multiple-reaction monitoring (MRM) for quantitation of QA. Quantitation was performed using one set of MRM transitions: parent QA ions (MH^−/191)® selective daughter ions m/z 127. […] The peak areas, peak ratios, linear regression, assayed concentrations, and other quantitative analysis calculations were conducted Sciex Analyst 1.4 software. […]

[3] = system: Gluconobacter oxydans membrane fraction (quinate dehydrogenase); settings: three hours; previous results (Adachi et al. 2003); cited from earlier work
[4] = rats, oral; cited from earlier work
leukocyte populations = settings: doxorubicin-induced leukopenia, rat; cited from earlier work

degradation by bacterial enzymes ([2]; enzymes produced by gut bacteria): not degraded
Molecule: CCCNC(=O)C1(O)CC(O)C(O)C(O)C1 (stereo not drawn) [KZ-41, 1,3,4,5-tetrahydroxy-cyclohexane-carboxylic acid propylamide]
levels of compound, oral compared with intravenous (IV) administration [1]: available for absorption into the circulation

Molecule: O=C(O)[C@]1(O)C[C@@H](O)[C@@H](O)[C@H](O)C1 [quinic acid]
depletion of QA by G. oxydans membrane fraction [3]: complete depletion | orally-administered dose recovered [4]: less than 10% | degradation by bacterial enzymes [2]: degraded by enzymes produced by bacteria in the intestines

B1: Neupogen: a granulocyte colony stimulator commonly used to treat chemotherapy-induced leukopenia (protein, chains of the INN, looked up)
chain: MTPLGPASSLPQSFLLKCLEQVRKIQGDGAALQEKLCATYKLCHPEELVLLGHSLGIPWAPLSSCPSQALQLAGCLSQLHSGLFLYQGLLQALEGISPELGPTLDTLQLDVADFATTIWQQMEELGMAPALQPTQGAMPAFASAFQRRAGGVLVASHLQSFLEVSYRVLRHLAQP
effect on leukocyte populations (leukocyte populations): increased only the neutrophil fraction
